In US20250332173A1, “COMPOUNDS AND METHODS FOR MODULATING NUCLEIC ACID SPLICING” (REMIX THERAPEUTICS INC., priority 2021, published 2025):
Where two headings read alike, the source gives them in different places.

What was measured:
[1] = tested on: MYB; assay: HiBiT protein abundance assay, MYB HiBiT K562 cell line; assay type: cell-based, human; conditions: 24 hours, top dose 10 μM
Method in brief: (§1)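 K562 knock-in lines with endogenous HiBiT-tagged target, 10,000 cells/well in IMDM + FBS, treated 24 h at 37° C with 10-point 3-fold dilutions (top 10 μM final; DMSO ≤0.25%). Lytic Nano-Glo HiBiT luminescence normalized to untagged K562 baseline and DMSO controls; IC50 = concentration giving 50% abundance via four-parameter fit.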

[2] = tested on: Target C; assay: RT-qPCR splicing assay panel, Target C canonical junction (CJ) mRNA; assay type: cell-based, human; conditions: Homo sapiens
Method in brief: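 A673 or K562 cells were treated for 24 h at 37 °C with compound in 11-point 3-fold dilution (top 10 uM final, DMSO ≤0.25%). Lysates then went to one-step RT-qPCR measuring canonical-junction mRNA, normalized to GAPDH, GUSB or PPIA.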

[3] = tested on: K562 (human chronic myelogenous leukemia) cells; assay: Cell Titer Glo 2.0 cell viability assay; assay type: cell-based; conditions: Homo sapiens, K562, 72 h, K562 cells, 72 hours, Cell Titer Glo 2.0; read-out: K562 GI50
[4] = tested on: HTT; assay: HiBiT protein abundance assay, HTT HiBiT K562 cell line; assay type: cell-based, human; conditions: 24 hours, top dose 10 μM
Method in brief: as §1

[5] = HiBiT K562 cell line, read-out: Effect on protein abundance, MYB (IC50 category)
[6] = Table 5 panel, canonical junction qPCR, compound concentration having 50% response in CJ decrease, read-out: Target C IC50 (decrease in CJ mRNA levels)
[7] = HiBiT K562 cell line, read-out: Effect on protein abundance, HTT (IC50 category)
[8] = HiBiT lytic detection, modified K562 cells, read-out: Effect on protein abundance, MYB (IC50)
[9] = canonical junction qPCR panel, Table 5, read-out: Target C (decrease in CJ mRNA levels, IC50)
[10] = HiBiT lytic detection, modified K562 cells, read-out: Effect on protein abundance, HTT (IC50)

| Structure (SMILES) | IC50 [1, 5] [nM] | IC50 [2, 6] [nM] | GI50 [3] [nM] | IC50 [4, 7] [nM] | IC50 [1, 8] [nM] | IC50 [2, 9] [nM] | IC50 [4, 10] [nM] |
| --- | --- | --- | --- | --- | --- | --- | --- |
| Cc1cn2cc(-c3cc(F)c4c(=O)n(C5CCN(C)CC5)cnc4c3)cc(F)c2n1 [Compound 231, 5-fluoro-7-{8-fluoro-2-methylimidazo[1,2-a]pyridin-6-yl}-3-(1-methylpiperidin-4-yl)quinazolin-4-one] | 100 to 1000 | 1000 to 10000 | 100 to 1000 | 100 to 1000 | – | – | – |
| Cc1cc(-c2ccc3c(=O)n(C4CCNCC4)cnc3c2F)cc2cn(C)nc12 [Compound 234] | 1000 to 10000 | > 10000 | 1000 to 10000 | 1000 to 10000 | – | – | – |
| Cc1c(O)c(-c2nc(C)c3c(=O)n([C@@H]4CCNC5(CC5)C4)ccc3n2)cc2cn(C)nc12 [Compound 1515, (R)-2-(6-hydroxy-2,7-dimethyl-2H-indazol-5-yl)-4-methyl-6-(4-azaspiro[2.5]octan-7-yl)pyrido[4,3-d]pyrimidin-5(6H)-one] | – | – | 100 to 1000 | – | < 100 | 100 to 1000 | 100 to 1000 |
| Cc1cn2cc(-c3ccc4c(c3)CCN(C3CCNCC3)C4=O)cc(Cl)c2n1 [Compound 216, 6-[8-chloro-2-methylimidazo[1,2-a]pyridin-6-yl]-2-(piperidin-4-yl)-3,4-dihydroisoquinolin-1-one] | 100 to 1000 | 1000 to 10000 | 100 to 1000 | 100 to 1000 | – | – | – |
| Cc1c(O)c(-c2ncc3c(=O)n([C@H]4CC[C@@H](N(C)C)CC4)ccc3n2)cc2cn(C)nc12 [Compound 1460, 6-((1s,4s)-4-(dimethylamino)cyclohexyl)-2-(6-hydroxy-2,7-dimethyl-2H-indazol-5-yl)pyrido[4,3-d]pyrimidin-5(6H)-one] | 100 to 1000 | – | 100 to 1000 | 100 to 1000 | – | 1000 to 10000 | – |
| Cc1cn2nc(-c3ccc4c(=O)n([C@H]5CCN(C)[C@@H](C)C5)ncc4n3)cc(C)c2n1 [Compound 1528, 2-(2,8-dimethylimidazo[1,2-b]pyridazin-6-yl)-6-(1,2-dimethyl-4-piperidyl)pyrido[2,3-d]pyridazin-5-one] | – | – | 100 to 1000 | – | 100 to 1000 | 100 to 1000 | 100 to 1000 |
| Cc1cn2nc(-c3ccc4c(c3)CCN(C3CCNCC3)C4=O)cc2c(C)n1 [Compound 223, 6-[4,6-dimethylpyrazolo[1,5-a]pyrazin-2-yl]-2-(piperidin-4-yl)-3,4-dihydroisoquinolin-1-one] | 1000 to 10000 | > 10000 | 1000 to 10000 | 1000 to 10000 | – | – | – |
| Cc1c(O)c(-c2ccc3c(=O)n([C@@H]4C[C@@H](C)N[C@@H](C)C4)ccc3n2)cc2cn(C)nc12 [Compound 1463, 6-[(2S,6R)-2,6-dimethyl-4-piperidyl]-2-(6-hydroxy-2,7-dimethyl-indazol-5-yl)-1,6-naphthyridin-5-one] | 100 to 1000 | – | 100 to 1000 | 100 to 1000 | – | 1000 to 10000 | – |
| Cn1cc2cc(-c3ncc4c(=O)n(C56CCC(N)(CC5)C6)ccc4n3)c(O)c(F)c2n1 [Compound 1468] | – | – | < 100 | – | < 100 | 100 to 1000 | 100 to 1000 |
| Cc1cn2cc(-n3cnc4cc(N5CCNCC5)ccc4c3=O)cc(F)c2n1 [Compound 228] | 100 to 1000 | 100 to 1000 | 100 to 1000 | 100 to 1000 | – | – | – |
| CN1CCC(N(C)c2ccc3ncn(-c4cc(F)c5nn(C)cc5c4)c(=O)c3c2)CC1 [Compound 2199] | – | – | > 10000 | – | > 10000 | > 10000 | > 10000 |
| Cc1cn2cc(-n3cnc4ccc(N5CCNCC5)cc4c3=O)cc(F)c2n1 [Compound 2195] | – | – | > 10000 | – | > 10000 | > 10000 | > 10000 |
| COc1cc(-c2ccc3c(=O)n([C@H]4CCN[C@@H](C)C4)ccc3n2)nn2cc(C)nc12 [Compound 1519, 2-(8-methoxy-2-methyl-imidazo[1,2-b]pyridazin-6-yl)-6-[(2S,4S)-2-methyl-4-piperidyl]-1,6-naphthyridin-5-one] | – | – | 100 to 1000 | – | < 100 | 100 to 1000 | < 100 |
| Cc1c(O)c(-c2ccc3c(=O)n([C@H]4C[C@@H](C)N[C@@H](C)C4)ccc3n2)cc2cn(C)nc12 [Compound 1464, 6-[(2S,6R)-2,6-dimethyl-4-piperidyl]-2-(6-hydroxy-2,7-dimethyl-indazol-5-yl)-1,6-naphthyridin-5-one] | < 100 | – | < 100 | 100 to 1000 | – | 1000 to 10000 | – |
| CNC12CCC(n3ccc4nc(-c5cc6cn(C)nc6c(C)c5O)ncc4c3=O)(CC1)C2 [Compound 1479] | – | – | < 100 | – | < 100 | 1000 to 10000 | 100 to 1000 |
| Cc1cn2cc(-c3ccc4c(=O)n(C5CCNCC5)cnc4c3F)cc(F)c2n1 [Compound 210] | 1000 to 10000 | 1000 to 10000 | 100 to 1000 | 1000 to 10000 | – | – | – |
| Cc1cc(-c2ccc3ncn(C4CCN(C)CC4)c(=O)c3c2)cc2cn(C)nc12 [Compound 2170] | – | – | > 10000 | – | > 10000 | > 10000 | > 10000 |

| Structure (SMILES) | IC50 [1, 5] [nM] | IC50 [2, 6] [nM] | GI50 [3] [nM] | IC50 [4, 7] [nM] | IC50 [1, 8] [nM] | IC50 [2, 9] [nM] | IC50 [4, 10] [nM] |
| --- | --- | --- | --- | --- | --- | --- | --- |
| CCN1CC[C@@H](n2ncc3nc(-c4cc(C)c5nc(C)cn5n4)ccc3c2=O)CC12CC2 [Compound 1530] | – | – | 100 to 1000 | – | < 100 | < 100 | < 100 |
| Cc1cn2cc(-n3cnc4cc(N5CCN(C)CC5)ccc4c3=O)cc(F)c2n1 [Compound 229] | > 10000 | > 10000 | > 10000 | > 10000 | – | – | – |
| Cc1cn2nc(-c3ccc4c(=O)n([C@@H]5CCNC6(CCC6)C5)ncc4n3)cc(C)c2n1 [Compound 1545, 6-[(8R)-5-azaspiro[3.5]nonan-8-yl]-2-(2,8-dimethylimidazo[1,2-b]pyridazin-6-yl)pyrido[2,3-d]pyridazin-5-one] | – | – | 100 to 1000 | – | 100 to 1000 | 100 to 1000 | < 100 |
| Cc1cn2cc(-c3cc(F)c4c(=O)n(C5CCNCC5)cnc4c3)cc(F)c2n1 [Compound 230] | < 100 | < 100 | 100 to 1000 | 100 to 1000 | – | – | – |
| CN1CCC(n2cnc3cc(-c4cc(F)c5nn(C)cc5c4)ccc3c2=O)CC1 [Compound 209] | > 10000 | 1000 to 10000 | 1000 to 10000 | > 10000 | – | – | – |
| Cc1cn2cc(-c3ccc4c(=O)n(C5CCNC6(CC6)C5)cnc4c3)cc(F)c2n1 (stereo not drawn) [Compound 236] | 100 to 1000 | 100 to 1000 | 100 to 1000 | 100 to 1000 | – | – | – |
| Cc1cn2nc(-c3ccc4c(=O)n([C@H]5CCN(C)C6(CC6)C5)ncc4n3)cc(C)c2n1 [Compound 1533] | – | – | 100 to 1000 | – | 100 to 1000 | 100 to 1000 | 100 to 1000 |
| Cc1cn2nc(-c3ccc4c(=O)n(C5CCN(CCF)C6(CC6)C5)ncc4n3)cc(C)c2n1 (stereo not drawn) [Compound 1542, 2-(2,8-dimethylimidazo[1,2-b]pyridazin-6-yl)-6-[4-(2-fluoroethyl)-4-azaspiro[2.5]octan-7-1]pyrido[2,3-d]pyridazin-5-one] | – | – | 1000 to 10000 | – | 1000 to 10000 | 1000 to 10000 | 100 to 1000 |
| Cc1nc2c(F)cc(-c3ccc4c(c3)CCN(C3CCNCC3)C4=O)cc2s1 [Compound 226] | 1000 to 10000 | > 10000 | 1000 to 10000 | 1000 to 10000 | – | – | – |
| Cc1cc(-c2cc(F)c3c(=O)n(C4CCN(C)CC4)cnc3c2)cc2cn(C)nc12 [Compound 233] | 100 to 1000 | 1000 to 10000 | 100 to 1000 | 100 to 1000 | – | – | – |
| Cc1cn2nc(-c3ccc4c(=O)n(C5C[C@@H](C)N[C@H](C)C5)ncc4n3)cc(C)c2n1 (stereo in doubt) [Compound 1537, 2-(2,8-dimethylimidazo[1,2-b]pyridazin-6-yl)-6-[(2R,6R)-2,6-dimethyl-4-piperidyl]pyrido[2,3-d]pyridazin-5-one] | 100 to 1000 | – | 100 to 1000 | 100 to 1000 | – | 100 to 1000 | – |
| Cn1cc2cc(-c3ccc4c(=O)n(C5CCNCC5)cnc4c3)cc(F)c2n1 [Compound 206] | 100 to 1000 | 100 to 1000 | 100 to 1000 | 100 to 1000 | – | – | – |
| CN1CCC(n2cnc3cc(-c4ccc5nn(C)cc5c4)ccc3c2=O)CC1 [Compound 208] | 1000 to 10000 | > 10000 | 1000 to 10000 | 1000 to 10000 | – | – | – |
| Cc1nc2c(F)cc(-c3ccc4c(c3)CCN(C3CCNCC3)C4=O)cc2o1 [Compound 215] | 100 to 1000 | 1000 to 10000 | 1000 to 10000 | 100 to 1000 | – | – | – |
| Cc1cn2nc(-n3cnc4ccc(N5CCNCC5)cc4c3=O)cc(C)c2n1 [Compound 2201] | – | – | > 10000 | – | > 10000 | > 10000 | > 10000 |
| Cc1cn2nc(-c3ccc4c(=O)n([C@@H]5CCN(C)C6(CC6)C5)ncc4n3)cc(C)c2n1 [Compound 1534] | – | – | 100 to 1000 | – | 100 to 1000 | < 100 | < 100 |
